Measurements taken from patent US12472160B2, “Modified-release tiopronin compositions, kits and methods for treating cystinuria and related disorders” (ALTIBIO, INC., priority 2017, dated 2025).

Experiments:
[1] = Stability of tiopronin in Beagle dog urine; assay type: in vitro ADME
From the text: Samples were considered stable if their concentrations were within ±20% of nominal. These samples met acceptable criteria for stability and results are presented below, in Tables 5, 6, and 7, showing the % tiopronin remaining in Beagle dog plasma (Table 5), plasma supernatant (Table 6), and urine (Table 7).
Samples were considered stable if their concentrations were within ±20% of nominal. These samples met acceptable criteria for stability and results are presented below, in Tables 12, 13, and 14, showing the % tiopronin remaining in Beagle dog plasma (Table 12), plasma supernatant (Table 13), and urine (Table 14).

[2] = test system: cystinuria patients; details: cited from earlier work
[3] = Stability of tiopronin in Beagle dog plasma supernatant (pre-crashed plasma); assay type: in vitro ADME
Method: (§1) Stability Testing: Finally, short term and long term stability of tiopronin in beagle dog plasma, pre-crashed plasma (plasma supernatant), and urine were assessed using two tiopronin concentrations (50 ng/mL or 500 ng/mL) under each of the following two conditions: (1) storage on the bench top for 4 hours and (2) frozen at −80° C. for up to one month. Samples were considered stable if their concentrations were within ±20% of nominal. These samples met acceptable criteria for stability and results are presented below, in Tables 5, 6, and 7, showing the % tiopronin remaining in Beagle dog plasma (Table 5), plasma supernatant (Table 6), and urine (Table 7).
as §1, with “12, 13,” for “5, 6,”, “14,” for “7,”, “12),” for “5),”, “13),” for “6),”, “14).” for “7).”

[4] = Total and free plasma tiopronin and urinary tiopronin recovery in Beagle dogs after intraduodenal administration (Example 5); assay type: in vivo
Method: The objective of this study was to evaluate total and free plasma tiopronin, and total urinary tiopronin, in an animal model (male Beagle dogs) following intraduodenal administration of tiopronin, to determine whether small intestine administration, would improve drug pharmacokinetics. Specifically, tiopronin formulations were administered to deliver 30 mg/kg per dog via single dose; and blood and urine samples then collected at different times post-dose.
Tiopronin formulations were administered to provide 30 mg/kg per dog as one single intraduodenal dose. Following administration, blood and urine samples were collected at the time points, or over the time intervals, indicated below.
Preparation of Dosing Formulations: Capsules were prepared and filled on the day of dosing, as follows. Tiopronin was dry mixed with avicel and mannitol to make a 40:30:30 mixture of tiopronin to avicel to mannitol, respectively. The dry mixes were custom filled with the appropriate amount of powder to deliver the specified doses to each dog based, on their respective body weights.
Animal Dosing and Sample Collection: This non-clinical study followed established practices and standard operating procedures of Absorption Systems and Absorption Systems Inc., as well as the study protocol. Study groups each included three dogs. The dogs were housed one per cage. The dogs were fasted for at least sixteen hours prior to each administration of the formulation. Food was given approximately eight hours post initial dosing. Animals had free access to water throughout the study.
Intraduodenal (ID) administration: Animals were anesthetized by a slow IV infusion of Propofol (6-10 mg/kg) or with an intramuscular injection of a cocktail containing ketamine (approximately 10-20 mg/kg), diazepam (3 mg/kg), and acepromazine (0.05 mg/kg) given IM about 5-10 minutes before intubation. Once animals were confirmed adequately anesthetized they were intubated and maintained using isoflurane (approximately 1-5% in oxygen 1 to 4 L/min) as necessary until dosing is complete. Formulations were administered into the proximal duodenum via endoscopic guidance to verify the dosing site. The endoscope first was maneuvered into the pyloric sphincter with camera visualization of the proximal duodenum. Once there was confirmation that the endoscope was placed between the pylorus and proximal duodenum, the test article was delivered to the proximal duodenum followed by a 5 mL flush. Upon completion of the dosing, the animals were taken off the isoflurane and allowed to recover from anesthesia. Time points began upon completion of the entire dose procedure. Following each blood sampling time point, 15 mL of water was given to each dog via syringe. […]

[5] = Stability of tiopronin in Beagle dog plasma; assay type: in vitro ADME
Method: as §1
as §1, with “12, 13,” for “5, 6,”, “14,” for “7,”, “12),” for “5),”, “13),” for “6),”, “14).” for “7).”

[6] = 50 ng/mL (low), bench top (RT) for 4 hours
[7] = 50 ng/mL (low), −80° C. freezer for 1 week
[8] = 500 ng/mL (high), bench top (RT) for 4 hours
[9] = 500 ng/mL (high), −80° C. freezer for 1 week
[10] = intraduodenal single 30 mg/kg dose, average, n=3 dogs

CC(S)C(=O)NCC(=O)O (stereo not drawn) [tiopronin, alpha-mercaptopropionylglycine]
% Tiopronin Remaining in Beagle Dog Urine ([1]; High (2500 ng/mL), bench top (RT) for 4 hours): 84.9% | % Tiopronin Remaining in Beagle Dog Urine ([1]; High (2500 ng/mL), −80° C. freezer for 1 week): 107% | % Tiopronin Remaining in Beagle Dog Urine ([1]; High (2500 ng/mL), −80° C. freezer for 2 week): 90.9% | % Tiopronin Remaining in Beagle Dog Urine ([1]; High (2500 ng/mL), −80° C. freezer for 4 week): 96.6% | % Tiopronin Remaining in Beagle Dog Urine ([1]; Low (250 ng/mL), bench top (RT) for 4 hours): 113% | % Tiopronin Remaining in Beagle Dog Urine ([1]; Low (250 ng/mL), −80° C. freezer for 1 week): 106% | % Tiopronin Remaining in Beagle Dog Urine ([1]; Low (250 ng/mL), −80° C. freezer for 2 week): 119% | % Tiopronin Remaining in Beagle Dog Urine ([1]; Low (250 ng/mL), −80° C. freezer for 4 week): 112% | cases/patients in which the drug is discontinued ([2]; due to adverse reactions, need for frequent dosing, poor efficacy (Pak et al., 1986)): about 30% | cystinuria patients in whom medication fails (continue forming stones) ([2]; human, in vivo): 85% | % Tiopronin Remaining in Beagle Dog Plasma Supernatant [3, 6]: 113% | % Tiopronin Remaining in Beagle Dog Plasma Supernatant [3, 7]: 118% | % Tiopronin Remaining in Beagle Dog Plasma Supernatant ([3]; 50 ng/mL (low), −80° C. freezer for 2 week): 105% | % Tiopronin Remaining in Beagle Dog Plasma Supernatant ([3]; 50 ng/mL (low), −80° C. freezer for 4 week): 113% | % Tiopronin Remaining in Beagle Dog Plasma Supernatant [3, 8]: 105% | % Tiopronin Remaining in Beagle Dog Plasma Supernatant [3, 9]: 112% | % Tiopronin Remaining in Beagle Dog Plasma Supernatant ([3]; 500 ng/mL (high), −80° C. freezer for 2 week): 105% | % Tiopronin Remaining in Beagle Dog Plasma Supernatant ([3]; 500 ng/mL (high), −80° C. freezer for 4 week): 116% | % of the dose (unchanged drug) found in urine ([4]; ID single 30 mg/kg dose, average, n=3 dogs): 30.5±19.9% | maximum plasma concentrations of free tiopronin [4, 10]: 1643 ± 105 ng/mL | maximum plasma concentrations of total tiopronin [4, 10]: 8640 ± 5522 ng/mL | urinary recovery of tiopronin, small intestine vs oral administration ([4]; single 30 mg/kg dose, FIG. 16): better tiopronin recovery in urine | % Tiopronin Remaining in Beagle Dog Plasma [5, 6]: 109% | % Tiopronin Remaining in Beagle Dog Plasma [5, 7]: 110% | % Tiopronin Remaining in Beagle Dog Plasma ([5]; 50 ng/mL (low), −80° C. freezer for 2 weeks): 112% | % Tiopronin Remaining in Beagle Dog Plasma ([5]; 50 ng/mL (low), −80° C. freezer for 4 weeks): 95.6% | % Tiopronin Remaining in Beagle Dog Plasma [5, 8]: 87.0% | % Tiopronin Remaining in Beagle Dog Plasma [5, 9]: 95.4% | % Tiopronin Remaining in Beagle Dog Plasma ([5]; 500 ng/mL (high), −80° C. freezer for 2 weeks): 92.8% | % Tiopronin Remaining in Beagle Dog Plasma ([5]; 500 ng/mL (high), −80° C. freezer for 4 weeks): 90.4%
